In data set [1] the target is T1, SIRT6 (Homo sapiens, UniProt Q8N6T7). The experiment in a line: HPLC deacetylation assay, single concentration […]. The following applies: read-out: % inhibition at 100 μM. The format is biochemical.
Target sequence in this assay (Q8N6T7 whole entry): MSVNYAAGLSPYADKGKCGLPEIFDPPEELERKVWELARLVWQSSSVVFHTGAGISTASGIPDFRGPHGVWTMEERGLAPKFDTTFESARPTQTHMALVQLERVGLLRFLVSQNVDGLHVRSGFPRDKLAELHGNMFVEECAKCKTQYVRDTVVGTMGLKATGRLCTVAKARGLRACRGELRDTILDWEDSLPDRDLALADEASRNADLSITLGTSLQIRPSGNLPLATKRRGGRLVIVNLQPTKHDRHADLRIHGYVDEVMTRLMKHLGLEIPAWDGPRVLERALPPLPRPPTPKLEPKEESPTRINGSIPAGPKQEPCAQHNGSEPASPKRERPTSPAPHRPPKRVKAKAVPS
Data set [2] relates to T2, NC(=O)c1ccc[n+]([C@@H]2O[C@H](COP(=O)([O-])OP(=O)(O)OC[C@H]3O[C@@H](n4cnc5c(N)ncnc54)[C@H](O)[C@@H]3O)[C@@H](O)[C@H]2O)c1.
T2 construct: GST-tagged recombinant SIRT6
The data set can be described thus: steady-state Michaelis-Menten kinetics by HPLC (Km, DMSO control). The format is biochemical, Homo sapiens.

The target of another data set is T3, SIRT2 (Homo sapiens, UniProt Q8IXJ6).
T3 sequence (Q8IXJ6 2-389): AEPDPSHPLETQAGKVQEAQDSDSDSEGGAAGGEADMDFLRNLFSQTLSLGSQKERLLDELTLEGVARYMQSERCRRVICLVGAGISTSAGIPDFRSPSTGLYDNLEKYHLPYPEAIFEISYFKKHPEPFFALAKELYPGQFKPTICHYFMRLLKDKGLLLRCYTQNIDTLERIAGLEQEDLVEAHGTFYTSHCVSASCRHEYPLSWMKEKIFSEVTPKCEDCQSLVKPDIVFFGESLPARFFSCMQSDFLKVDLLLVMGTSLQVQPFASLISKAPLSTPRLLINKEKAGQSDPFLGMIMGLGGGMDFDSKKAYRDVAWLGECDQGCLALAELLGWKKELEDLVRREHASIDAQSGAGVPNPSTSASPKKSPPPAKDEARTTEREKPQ
The data set can be described thus: fluorogenic deacetylation assay (BioMol KI179 substrate), single concentration […]. It counts as biochemical.

For data set [3], the target named is T1, SIRT6. The data set can be described thus: HPLC deacetylation assay with H3K9Ac peptide; dose response and steady-state kinetics (activation). It counts as biochemical.
Target sequence in this assay (Q8N6T7 whole entry): as the sequence (Q8N6T7 whole entry) above
The target in data set [4] is T1, SIRT6. The experiment in a line: fluorogenic demyristoylase assay (BPS Bioscience), myristoyl peptide substrate. It counts as biochemical.
Target sequence in this assay (Q8N6T7 2-355): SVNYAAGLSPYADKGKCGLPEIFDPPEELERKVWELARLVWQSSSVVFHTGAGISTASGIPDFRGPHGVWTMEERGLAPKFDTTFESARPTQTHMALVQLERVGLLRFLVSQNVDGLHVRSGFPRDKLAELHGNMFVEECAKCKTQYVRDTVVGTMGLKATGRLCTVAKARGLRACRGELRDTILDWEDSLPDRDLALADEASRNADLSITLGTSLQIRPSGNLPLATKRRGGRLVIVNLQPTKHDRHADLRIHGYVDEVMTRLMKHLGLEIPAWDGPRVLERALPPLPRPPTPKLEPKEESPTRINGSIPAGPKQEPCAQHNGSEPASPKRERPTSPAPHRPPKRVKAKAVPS

Here are results for four compounds from paper PMC12036750, “Screening of SIRT6 inhibitors and activators: A novel activator has an impact on breast cancer cells” (Biomedicine & pharmacotherapy = Biomedecine & …, 2021).

Consider `O=c1c(O)c(-c2ccc(O)c(O)c2)oc2cc(O)cc(O)c12` [Q, quercetin], for which, at SIRT6 [1], the inhibition at 100 µM stood at 30%.

As to SIRT6 (Homo sapiens), in data set [2], the Km was 1190 ± 450 µM, the kcat turned out to be 0.0022 ± 0.0004 s⁻¹ and the specificity constant (kcat/Km) came to 1.9 M⁻¹ s⁻¹.

On to `Cc1c(-c2ccccc2)oc2c(CC(=O)OCC(=O)c3ccc(O)cc3O)cccc2c1=O` [compound 1, (2,4-dihydroxy-phenyl)–2-oxoethyl 2-(3-methyl-4-oxo-2-phenyl-4H-chromen-8-yl)acetate], for which, on SIRT2, the inhibition at 200 µM was 53 ± 1.3%. At SIRT6 [3], this compound came in with an EC50 of 80 ± 12 µM.

As for `NC(=O)c1cccnc1` [NAM], the inhibition at 200 µM against SIRT6 [4] came out at 86 ± 13%.

The term inhibition denotes the percentage by which the read-out fell short of the control. For orientation: Km means the substrate concentration at which the rate is half of its maximum. Usually kcat stands for the number of substrate molecules converted per active site and unit of time at saturation. As a reminder, the kcat/Km is the second-order rate constant that governs catalysis at low substrate concentration. As a reminder, the EC50 is the midpoint of the concentration-response curve. The low end stands for greater potency, the high end for weaker potency.
